Each compound was assayed on Fusarium culmorum (assay: whole plant or invertebrate). Details: in Triticum aestivum, read-out: control of Fusarium culmorum.
Format: in vivo, Fusarium culmorum on wheat spikelets cv. Monsun
With `C/C=C(\C)CC(C)(Cc1ccccc1)C(=O)Nc1cnc2c(F)cccc2c1` (stereo not drawn) [Compound E-32, (E)-2-benzyl-N-(8-fluoro-3-quinolyl)-2,4-dimethyl-hex-4-enamide] the pest or weed control at 200 ppm was at least 80%.
With `CC(C)CC(Cc1ccccc1)C(=O)Nc1cnc2c(F)cccc2c1` (stereo not drawn) [Compound E-35, 2-benzyl-N-(8-fluoro-3-quinolyl)-4-methyl-pentanamide] the pest or weed control at 200 ppm was at least 80%.
Work on `Cc1nc2c(F)cccc2cc1NC(=O)C(C)(Cc1ccccc1)OC(C)C` (stereo not drawn) [Compound E-39, N-(8-fluoro-2-methyl-3-quinolyl)-2-isopropoxy-2-methyl-3-phenyl-propanamide] yielded a pest or weed control at 200 ppm of at least 80%.
`CC(C)OC(C)(Cc1ccccc1)C(=O)Nc1cnc2c(F)cccc2c1` (stereo not drawn) [Compound E-40, N-(8-fluoro-3-quinolyl)-2-isopropoxy-2-methyl-3-phenyl-propanamide] gave a pest or weed control at 200 ppm of at least 80%.
In the case of `COC(C)(Cc1ccccc1)C(=O)Nc1cc2cccc(F)c2nc1C` (stereo not drawn) [Compound E-41, N-(8-fluoro-2-methyl-3-quinolyl)-2-methoxy-2-methyl-3-phenyl-propanamide], the pest or weed control at 200 ppm is reported as at least 80%.
With `Cc1nc2c(F)cccc2cc1NC(=O)C(C)(Cc1ccccc1)CC(F)(F)F` (stereo not drawn) [Compound E-47, 2-benzyl-4,4,4-trifluoro-N-(8-fluoro-2-methyl-3-quinolyl)-2-methyl-butanamide] the pest or weed control at 200 ppm was at least 80%.
`CC(Cc1ccccc1)(CC(F)F)C(=O)Nc1cnc2c(F)cccc2c1` (stereo not drawn) [Compound E-55, 2-benzyl-4,4-difluoro-N-(8-fluoro-3-quinolyl)-2-methyl-butanamide] gave a pest or weed control at 200 ppm of at least 80%.
For `CC(Cc1ccccc1)(CC(F)(F)Cl)C(=O)Nc1cnc2c(F)cccc2c1` (stereo not drawn) [Compound E-56, 2-benzyl-4-chloro-4,4-difluoro-N-(8-fluoro-3-quinolyl)-2-methyl-butanamide], the pest or weed control at 200 ppm was at least 80%.
In the case of `CC(C=C(F)F)(Cc1ccccc1)C(=O)Nc1cnc2c(F)cccc2c1` (stereo not drawn) [Compound E-57, 2-benzyl-4,4-difluoro-N-(8-fluoro-3-quinolyl)-2-methyl-but-3-enamide], the pest or weed control at 200 ppm is reported as at least 80%.
With `C=C(C)CC(C)(Cc1ccccc1)C(=O)Nc1cnc2ccccc2c1` (stereo not drawn) [Compound E-64, 2-benzyl-2,4-dimethyl-N-(3-quinolyl)pent-4-enamide] the pest or weed control at 200 ppm was at least 80%.
Compound `C=C(C)CC(C)(Cc1ccccc1)C(=O)Nc1cc2cccc(F)c2nc1C` (stereo not drawn) [Compound E-66, 2-benzyl-N-(8-fluoro-2-methyl-3-quinolyl)-2,4-dimethyl-pent-4-enamide] has a pest or weed control at 200 ppm of at least 80%.
`CC(C)(Cc1ccccc1)C(=O)Nc1cnc2c(F)cccc2c1` [Compound E-69, N-(8-fluoro-3-quinolyl)-2,2-dimethyl-3-phenyl-propanamide] showed a pest or weed control at 200 ppm of at least 80%.
`CCCC(C)(Cc1ccccc1)C(=O)Nc1cnc2c(F)cccc2c1` (stereo not drawn) [Compound E-77, 2-benzyl-N-(8-fluoro-3-quinolyl)-2-methyl-pentanamide] was tested, and the pest or weed control at 200 ppm was at least 80%.
Compound `CC(Cc1ccccc1)(CC(F)(F)F)C(=O)Nc1cnc2ccccc2c1` (stereo not drawn) [Compound E-81, 2-benzyl-4,4,4-trifluoro-2-methyl-N-(3-quinolyl)butanamide] has a pest or weed control at 200 ppm of at least 80%.
Work on `CC(C)CC(C#N)(Cc1ccccc1)C(=O)Nc1cnc2c(F)cccc2c1` (stereo not drawn) [Compound E-83, 2-benzyl-2-cyano-N-(8-fluoro-3-quinolyl)-4-methyl-pentanamide] yielded a pest or weed control at 200 ppm of at least 80%.
Work on `Cc1nc2c(F)cccc2cc1NC(=O)[C@](C)(Cc1ccccc1)CC(C)C` [Compound F-7, (2S)-2-benzyl-N-(8-fluoro-2-methyl-3-quinolyl)-2,4-dimethyl-pentanamide] yielded a pest or weed control at 200 ppm of at least 80%.
With `Cc1nc2c(F)cccc2cc1NC(=O)[C@@](C)(Cc1ccccc1)CC(C)C` [Compound F-8, (2R)-2-benzyl-N-(8-fluoro-2-methyl-3-quinolyl)-2,4-dimethyl-pentanamide] the pest or weed control at 200 ppm was at least 80%.
`Cc1c(NC(=O)[C@](C)(Cc2ccccc2)CC(F)(F)F)cnc2c(F)cccc12` [Compound F-13, (2R)-2-benzyl-4,4,4-trifluoro-N-(8-fluoro-4-methyl-3-quinolyl)-2-methyl-butanamide] was tested, and the pest or weed control at 200 ppm was at least 80%.

Source: patent US20220030867A1 (priority 2018, published 2022)
